Assay results from PubChem BioAssay AID1996.
Values after ≈ are worked out from the molar mass of the structure shown.

Conditions: buffer; pH 7.4; 200.0 µM

| SMILES | solubility kinetic [µg/mL] |
| --- | --- |
| CCc1c(C(=O)NCCc2cccc(C)c2)[nH]c(C)c1C(C)=O | 5 (≈ 16 µM) |
| Cc1ccc(NC(=O)COC(=O)c2cccnc2)cc1 | > 40.5 |
| COc1ccc2oc(C(=O)NC(C)c3ccccn3)c(C)c2c1 (centres undefined) | > 46.6 |
| COc1ccc(NC(=S)NCCN2CCC(C)CC2)cc1 | > 46.1 |
| COC(=O)c1ccc(COc2ccc(C#N)cc2)o1 | 7 (≈ 27.2 µM) |
| O=C(/C=C/c1ccc2c(c1)OCO2)NC1CCCC1 | 31.4 (≈ 121 µM) |
| Cc1cccc(C(=O)NCCNC(=O)c2ccco2)c1 | 34.5 (≈ 127 µM) |
| O=C(/C=C/c1ccccc1)NCc1ccc2c(c1)OCO2 | 2.5 (≈ 8.89 µM) |
| Cc1ccc(CN(C)C(=O)CCc2c[nH]c3ccccc23)o1 | 6.5 (≈ 21.9 µM) |
| Cc1cc(C)c2c(CN3CCOCC3)cc(=O)oc2c1C | 26.5 (≈ 92.2 µM) |
| COc1ccc(/C=C/C(=O)NC(=S)N2CCOCC2)cc1 | > 46 |
| CCCOc1ccc(CN2CCOCC2)cc1OC.Cl | > 45.3 |
| CN(C)CCOC1c2ccccc2C=Cc2ccccc21.O=C(O)/C=C\C(=O)O | > 59.3 |
| COc1cccc(CC(=O)Nc2ccc(S(=O)(=O)Nc3nccs3)cc2)c1 | > 60.5 |
| CC(C)C(NC(=O)c1cccs1)C(=O)NC1CCCCC1 (centres undefined) | 4.7 (≈ 15.2 µM) |
| O=C(c1cccc(Oc2ccccc2)c1)N1CCOCC1 | > 42.5 |
| Cc1cc(C)cc(C(=O)NCCN2CCOCC2)c1 | > 39.4 |
| Cc1cc(C)c(C(=O)COC(=O)c2c(C)noc2C)cc1C | 7.1 (≈ 23.6 µM) |
| O=C(O)C(Cc1ccccc1)N1C(=O)CCC1=O (centres undefined) | > 37.1 |
| O=C(Cc1ccccc1)Nc1ccc(NC(=O)c2cccs2)cc1 | < 0.4 |

| SMILES | solubility kinetic [µg/mL] |
| --- | --- |
| Nc1cccc(-c2cc3ccccc3oc2=O)c1 | > 35.6 |
| Cc1c(Cl)cccc1NC(=O)Cc1cccs1 | 11.1 (≈ 41.8 µM) |
| Nc1cccc2c(=O)c3ccccc3[nH]c12 | 5.6 (≈ 26.6 µM) |
| CCc1ccc(C(=O)OCC(=O)NC2CCCC2)cc1 | 11.6 (≈ 42.1 µM) |
| CSc1ccc(CN2CCCCCC2)cc1 | 22.1 (≈ 93.9 µM) |
| CC(=O)N(C)c1ccc(NC(=O)Cc2cccs2)cc1 | 42.6 (≈ 148 µM) |
| Cc1ccc2[nH]cc(CCNC(=O)C3CCCCC3)c2c1 | 34.2 (≈ 120 µM) |
| COc1cc(NC(=O)CC(C)n2ccnc2)cc(OC)c1 (centres undefined) | > 43.4 |
| CSc1ncccc1C(=O)OCC(=O)N1CC2(C)CC1CC(C)(C)C2 (centres undefined) | > 54.4 |
| CC(=O)OC(C(=O)NC1CCCCC1)c1cccc(F)c1 (centres undefined) | > 44 |
| Nc1cccc(NC(=O)CN2CCOCC2)c1 | > 35.3 |
| CC1=NC(C)(C)Cc2cc(C)c(C)cc21.Cl | > 35.7 |
| CC1CN(C(=S)Nc2ccc(Cl)cc2)CC(C)O1 (centres undefined) | > 42.7 |
| CC(C)CCNC(=O)CCCCn1c(=O)[nH]c2ccsc2c1=O | 47.1 (≈ 140 µM) |
| CCCC(=O)Nc1cccc(Oc2ccc3c(c2)C(=O)NC3=O)c1 | 11.6 (≈ 35.8 µM) |
| COc1ccc(NC(=O)CN2C(=O)NC(C)(c3ccc4c(c3)OCCO4)C2=O)cc1S(N)(=O)=O (centres undefined) | > 73.6 |
| CC(=O)c1c(C)oc2ccc(NS(=O)(=O)c3ccc(F)cc3C)cc12 | < 0.8 |
| Cc1ccc(NC(=O)COc2cccc3ccccc23)c(O)c1 | 3.8 (≈ 12.4 µM) |
| COc1cc(SC)ccc1C(=O)OCC(=O)NC1CCCCC1 | 2.2 (≈ 6.52 µM) |
| O=c1[nH]c(=O)n(-c2ccc(F)cc2)c(O)c1/C=C1\C=Nc2ccccc21 | 1.9 (≈ 5.44 µM) |

| SMILES | solubility kinetic [µg/mL] |
| --- | --- |
| Cc1nc(/C(N)=N/OC(=O)c2c(-c3ccccc3Cl)noc2C)cs1 | 48.2 (≈ 128 µM) |
| CCC(C)Nc1nc(N)c([N+](=O)[O-])c(Nc2ccccc2OC)n1 (centres undefined) | 2.6 (≈ 7.82 µM) |
| Cc1ccc(OCC(=O)NCCNC(=O)c2cccnc2)cc1C | 46.7 (≈ 143 µM) |
| CN(CC(=O)Nc1cccc(F)c1)C(=O)c1ccc(N2CCOCC2)c([N+](=O)[O-])c1 | 33.7 (≈ 80.9 µM) |
| CCNC(=S)N1CCCCC1CO (centres undefined) | 27.2 (≈ 134 µM) |
| COc1cc(OC)nc(NC(=O)NS(=O)(=O)c2ccccc2Cl)n1 | 45 (≈ 121 µM) |
| O=c1oc2ccccc2c(NCc2ccc(Cl)cc2)c1[N+](=O)[O-] | 1.4 (≈ 4.23 µM) |
| O=C(Nc1cccc([N+](=O)[O-])c1)Nc1cnccn1 | 1.2 (≈ 4.63 µM) |
| COc1ccc(Nc2cc(C)c3ccccc3n2)cc1 | 12.6 (≈ 47.7 µM) |
| COc1cc(C(=O)NC(=S)N2CCN(C)CC2)cc(OC)c1OC | > 53 |
| CC(=O)N(CCN(C)C)c1nc2cc3c(cc2s1)OCCO3.Cl | 47.6 |
| Cc1ccc(C(=O)CN2C(=O)C(C)Oc3ccccc32)cc1 (centres undefined) | 21.6 (≈ 73.1 µM) |
| Cc1cccc(-n2c(O)c(C=Nc3cccc(O)c3)c3ccccc3c2=O)n1 | 0.8 (≈ 2.15 µM) |
| COC(=O)c1scc(C)c1NS(=O)(=O)c1ccc(NC(C)=O)cc1 | > 55.3 |
| O=C(Cn1cnc2ccccc2c1=O)NCc1cccs1 | 35.6 (≈ 119 µM) |
| CC(O)c1cccc(NC(=O)C2CCCCC2)c1 (centres undefined) | 25.6 (≈ 104 µM) |
| COc1cc(C(=O)NC2CC(C)(C)NC(C)(C)C2)cc(OC)c1OC | > 52.6 |
| CCn1c(SCC(=O)Nc2nccs2)nnc1C1CC1 | > 46.4 |
| NC(=O)COC(=O)CC12CC3CC(CC(Br)(C3)C1)C2 | > 49.5 |
